# Measurements from patent US20220089609A1, “SUBSTITUTED QUINAZOLINONE DERIVATIVES AND THEIR USE AS POSITIVE ALLOSTERIC MODULATORS OF MGLUR4” (DOMAIN THERAPEUTICS, priority 2018, published 2022).
# Where a name gives a salt, the structure may show the parent alone.
# Key:
# [1] = test system: haloperidol-induced catalepsy; assay: Haloperidol-induced catalepsy model in the mouse (bar test); format: in vivo; details: 1 mg/kg per os 60 minutes after haloperidol (1 mg/kg i.p.), measured between 135 and 270 min after haloperidol injection
# Protocol: This method, which detects anti-cataleptic activity, follows those well-known by one skilled in the art and described in the literature (e.g. Pires et al., Braz J Med and Biol Res 38, 1867-1872, 2005; Shiozaki et al., Psychopharmacology 147, 90-95, 1999). Catalepsy is a symptom of Parkinson's disease, and is characterized by muscular rigidity and fixity of posture.
# The procedure applied to the compounds of the invention is as follows:
# Catalepsy is assessed using the bar test in mice submitted to acute administration of haloperidol (1 mg/kg, intra-peritoneal or i.p.). Mice (male RjOrl:SWISS mice, weighing 30-35 g at the beginning of the experiment) were placed (6 to 9 in each group) in Plexiglas cages, and injected with haloperidol (1 mg/kg i.p.). The catalepsy response of one mouse was measured when the animal maintained an imposed posture with both forelimbs placed on a horizontal 0.9 cm diameter wire bar suspended 4 cm above a platform. The end point of catalepsy was considered to occur when both forelimbs were removed from the bar, the mouse climbed onto the bar or if the animal moved its head in an exploratory manner. A cut-off time of 180 seconds was applied. The degree of catalepsy was scored 45 minutes after haloperidol administration and continued at 45 minutes intervals for a total of 270 minutes. Between determinations, the animals were returned to their home cages.
# Compounds 81, 100, 114, 119, 143 and 144 were evaluated at 1 mg/kg, administered per os, 60 minutes after haloperidol, and compared with a vehicle control group.
# The anti-cataleptic effect of the compound was compared to vehicle-treated group using ANOVA test followed by the Dunnett's test.
# human mGluR4 (hmGluR4) = target: T1, human mGluR4 (hmGluR4) (Homo sapiens, UniProt Q14833); assay: Calcium assay EC50 determination, positive allosteric modulator activity on hmGluR4 transiently over-expressed in HEK-293 cells; format: cell-based; details: PAM mode with EC20 glutamate; hmGluR4 in HEK-293 cells; intracellular calcium (Fluo4AM); read-out: mGluR4 positive allosteric modulator activity, half maximal effective concentration (EC50)
# T1 construct: expressed in transfected cells; host or cells: HEK-293 cells, transient co-transfection by electroporation
# T1 sequence (Q14833 33-912): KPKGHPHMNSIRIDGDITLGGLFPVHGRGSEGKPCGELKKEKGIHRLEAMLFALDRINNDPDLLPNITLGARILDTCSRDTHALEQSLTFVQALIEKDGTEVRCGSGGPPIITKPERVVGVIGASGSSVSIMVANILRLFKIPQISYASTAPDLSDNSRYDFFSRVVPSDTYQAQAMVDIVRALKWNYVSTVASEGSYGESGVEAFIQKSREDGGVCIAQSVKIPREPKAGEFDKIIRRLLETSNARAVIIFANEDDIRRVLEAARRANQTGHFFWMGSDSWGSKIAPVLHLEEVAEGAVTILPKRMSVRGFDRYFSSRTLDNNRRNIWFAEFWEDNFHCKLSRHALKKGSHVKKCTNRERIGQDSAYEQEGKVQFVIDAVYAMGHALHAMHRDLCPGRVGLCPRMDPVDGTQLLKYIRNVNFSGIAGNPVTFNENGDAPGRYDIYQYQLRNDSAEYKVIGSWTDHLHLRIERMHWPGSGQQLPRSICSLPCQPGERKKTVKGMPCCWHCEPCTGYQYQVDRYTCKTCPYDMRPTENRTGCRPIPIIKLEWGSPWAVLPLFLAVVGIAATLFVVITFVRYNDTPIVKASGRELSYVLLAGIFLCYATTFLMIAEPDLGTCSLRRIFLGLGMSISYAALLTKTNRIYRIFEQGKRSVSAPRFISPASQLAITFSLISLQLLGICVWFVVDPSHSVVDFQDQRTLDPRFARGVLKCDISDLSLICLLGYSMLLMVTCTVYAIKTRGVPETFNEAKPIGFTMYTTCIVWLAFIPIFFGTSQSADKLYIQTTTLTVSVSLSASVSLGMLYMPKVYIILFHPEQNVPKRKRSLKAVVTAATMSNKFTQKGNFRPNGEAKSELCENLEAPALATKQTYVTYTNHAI
# Outline: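 HEK-293 cells transiently co-transfected with hmGluR4, chimeric G protein and glutamate transporters; Fluo4AM calcium read (ex 485/em 525 nm) on FLIPR Tetra. Compound alone 10 min for agonism, then EC20 glutamate with 3 min recording for PAM activity, versus buffer or EC20 glutamate basal.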
SMILES,melting point,EC50 (human mGluR4 (hmGluR4)),anti-cataleptic effect (mean time of latency spent on the bar) compared to vehicle-treated group [1]
"Cc1cc(OC2CCC(=O)N(C)C2)cc2c(=O)[nH]c(-c3cc4ccsc4cn3)nc12 (stereo not shown) [Compound 81, 8-Methyl-6-(1-methyl-6-oxo-piperidin-3-yloxy)-2-thieno[2,3-c]pyridin-5-yl-3H-quinazolin-4-one]",221 to 225 °C,≤ 100 nM,significant anti-cataleptic effect
"Cc1cc(CCN2CCOCC2)cc2c(=O)[nH]c(-c3cc4ccsc4cn3)nc12 [Compound 100, 8-methyl-6-(2-morpholin-4-yl-ethyl)-2-thieno[2,3-c]pyridin-5-yl-3H-quinazolin-4-one hydrochloride]",,≤ 100 nM,significant anti-cataleptic effect
"Cc1cc(CN2CCOCC2)cc2c(=O)[nH]c(-c3cc4ccsc4cn3)nc12 [Compound 114, 8-methyl-6-(morpholinomethyl)-2-thieno[2,3-c]pyridin-5-yl-3H-quinazolin-4-one hydrochloride]",,≤ 100 nM,significant anti-cataleptic effect

# Continued, in another order:
melting point,EC50 (human mGluR4 (hmGluR4)),SMILES,anti-cataleptic effect (mean time of latency spent on the bar) compared to vehicle-treated group [1]
> 250 °C,≤ 100 nM,"Cc1cc(CN2CCOCC2)cc2c(=O)[nH]c(-c3cc4sccc4cn3)nc12.Cl [Compound 119, 8-Methyl-6-(morpholinomethyl)-2-(thieno[3,2-c]pyridin-6-yl)quinazolin-4(3H)-one hydrochloride]",significant anti-cataleptic effect
> 250 °C,≤ 100 nM,"Cc1cc(CCN2CCN(C)C(=O)C2)cc2c(=O)[nH]c(-c3cc4sccc4cn3)nc12.Cl [Compound 143, 8-Methyl-6-[2-(4-methyl-3-oxo-piperazin-1-yl)ethyl]-2-thieno[3,2-c]pyridin-6-yl-3H-quinazolin-4-one hydrochloride]",significant anti-cataleptic effect
